We go through nine compounds from PubChem BioAssay (NCI).

“And” between values parts separate entries of the source, which are not always exact repeats. Identical values can stand only once.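 Results reflect a 48-hour exposure of cells in 96-well plates to compound at five concentrations. Abbreviation: GI50, concentration required for 50% inhibition of growth. The concentration for full growth arrest is given as TGI.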

Test systems include 786-0 renal; COLO 205 colon; HS 578T breast; MDA-MB-231 breast; NCI/ADR-RES ovarian; OVCAR-5 ovarian; RPMI-8226 leukemia; SK-MEL-28 melanoma; SK-MEL-5 melanoma; SW-620 colon.
Holding throughout (experiment): growth of human tumour cells (NCI), 48 h

Regarding `O=C1C(Cl)=C(Nc2cccc(C(F)(F)F)c2)C(=O)N1Cc1ccccc1Cl`, the GI50 in the assay with 786-0 renal was 1.78 µM; in the assay on COLO 205 colon it was 12 µM; in the assay with HS 578T breast, 8340 nM; in the assay on MDA-MB-231 breast it was 2670 nM; in the assay with NCI/ADR-RES ovarian, 10100 nM; in the assay on OVCAR-5 ovarian, 18.3 µM. The GI50 in the assay with RPMI-8226 leukemia was 2170 nM; in the assay on SK-MEL-28 melanoma, 8.21 µM; in the assay with SK-MEL-5 melanoma it was 2.79 µM; in the assay with SW-620 colon, 2.38 µM. Also, the TGI in the assay on 786-0 renal was found to be 16.5 µM; with COLO 205 colon it was 35.8 µM; with HS 578T breast, 43.5 µM; with MDA-MB-231 breast, 17.4 µM; in the assay with NCI/ADR-RES ovarian, 26.8 µM; in the assay on OVCAR-5 ovarian it was 37 µM. Also, the TGI in the assay on RPMI-8226 leukemia is > 23.5 µM; in the assay with SK-MEL-28 melanoma, 26.9 µM; in the assay with SK-MEL-5 melanoma, 14.7 µM; in the assay on SW-620 colon, 22.2 µM.
On to `O=C(O)c1ccc(-c2ccc(C(=O)O)cc2I)c(I)c1`, for which the GI50 in the assay with 786-0 renal was > 100 µM; with COLO 205 colon, > 100 µM; in the assay on HS 578T breast, > 100000 nM; with MDA-MB-231 breast it was > 100000 nM; with NCI/ADR-RES ovarian, > 100000 nM; in the assay with OVCAR-5 ovarian it was > 100 µM. In addition, the GI50 in the assay with RPMI-8226 leukemia is > 100000 nM; with SK-MEL-28 melanoma it was > 100 µM; in the assay with SK-MEL-5 melanoma, > 100 µM; with SW-620 colon, > 100 µM. The TGI with 786-0 renal, with COLO 205 colon, in the assay with HS 578T breast, in the assay on MDA-MB-231 breast, in the assay on NCI/ADR-RES ovarian and in the assay on OVCAR-5 ovarian was > 100 µM each time. Besides, the TGI in the assay with RPMI-8226 leukemia, with SK-MEL-28 melanoma, with SK-MEL-5 melanoma and in the assay with SW-620 colon was > 100 µM in each case.
Take `COc1cc(C2CC(c3ccc4c(c3)OCO4)=NN2C(C)=O)cc(OC)c1OC` (centres undefined): the GI50 in the assay on 786-0 renal was 3.65 µM; in the assay on COLO 205 colon, 0.466 µM; with HS 578T breast, 1260 nM; in the assay with MDA-MB-231 breast it was 4070 nM; with NCI/ADR-RES ovarian it was 405 nM; in the assay on OVCAR-5 ovarian, 4.28 µM. For the same compound, the GI50 in the assay with RPMI-8226 leukemia is 2740 nM; in the assay on SK-MEL-28 melanoma, 4.97 µM; in the assay with SK-MEL-5 melanoma it was 0.419 µM; with SW-620 colon, 0.426 µM. For the same compound, the TGI in the assay on 786-0 renal is > 100 µM; in the assay on COLO 205 colon it was 2.6 µM; with HS 578T breast, > 74.1 µM; with MDA-MB-231 breast, > 100 µM; in the assay on OVCAR-5 ovarian, > 100 µM; in the assay on RPMI-8226 leukemia it was > 25.7 µM. In addition, the figures for the TGI with SK-MEL-28 melanoma, in the assay on SK-MEL-5 melanoma and in the assay with SW-620 colon were > 100 µM, 8.07 µM and > 100 µM, respectively.
Regarding `Oc1ccc(/C=N/Nc2nc3ccccc3s2)c(O)c1`, the GI50 with 786-0 renal is 3.68 µM; in the assay on COLO 205 colon it was 3.11 µM; in the assay on HS 578T breast it was 2910 nM; in the assay on MDA-MB-231 breast, 1690 nM; with NCI/ADR-RES ovarian it was 1220 nM; in the assay on OVCAR-5 ovarian it was 2.59 µM. The GI50 with RPMI-8226 leukemia is 2550 nM; in the assay on SK-MEL-28 melanoma it was 2.99 µM; with SK-MEL-5 melanoma, 3.37 µM; in the assay with SW-620 colon it was 3.47 µM. Moreover, the TGI in the assay on 786-0 renal is 53.8 µM; with COLO 205 colon, 21.3 µM; with HS 578T breast it was > 100 µM; in the assay with MDA-MB-231 breast it was 12.9 µM; with NCI/ADR-RES ovarian it was > 100 µM; in the assay on OVCAR-5 ovarian it was 21 µM. Besides, the TGI with RPMI-8226 leukemia, with SK-MEL-28 melanoma, with SK-MEL-5 melanoma and in the assay with SW-620 colon was > 100 µM throughout.
As for `COc1cc(OC)c(OC)cc1/C=C1\C=Cc2ccccc21`, the TGI was > 100 µM with 786-0 renal; > 100 µM in the assay on COLO 205 colon; 96.2 µM in the assay on HS 578T breast; 50.9 µM with MDA-MB-231 breast; > 100 µM in the assay with NCI/ADR-RES ovarian; > 100 µM in the assay on OVCAR-5 ovarian. The TGI in the assay with RPMI-8226 leukemia was > 100 µM; in the assay on SK-MEL-28 melanoma, 47.6 µM; in the assay on SK-MEL-5 melanoma, 26.1 µM; in the assay on SW-620 colon it was 35.4 µM.
Regarding `O=C1C=CN(C2OC(CO)C(O)C2O)C(=O)C1` (centres undefined), the TGI was 1260 µM in the assay on 786-0 renal; 625 µM and > 2500 µM in the assay with COLO 205 colon; > 747 µM in the assay on HS 578T breast; > 2500 µM in the assay on MDA-MB-231 breast; 625 µM and > 2500 µM with NCI/ADR-RES ovarian; > 2500 µM in the assay on OVCAR-5 ovarian. The TGI in the assay on RPMI-8226 leukemia was 496 µM and > 2500 µM; with SK-MEL-28 melanoma, > 2500 µM; in the assay with SK-MEL-5 melanoma, > 2500 µM; in the assay on SW-620 colon, 625 µM and > 2500 µM. Moreover, the GI50 in the assay on COLO 205 colon was 60.2 µM; with RPMI-8226 leukemia it was 23100 nM; in the assay with SK-MEL-28 melanoma, > 625 µM and 252 µM; with SK-MEL-5 melanoma, > 625 µM and 325 µM; in the assay with SW-620 colon, 71.4 µM.
On to `c1ccc2cc(OCC3CO3)c(OCC3CO3)cc2c1` (centres undefined), for which the TGI in the assay on 786-0 renal worked out at 12.9 µM; with COLO 205 colon, 25.3 µM; in the assay on HS 578T breast it was 20.3 µM; with MDA-MB-231 breast, 55.1 µM; with NCI/ADR-RES ovarian, 27.3 µM; with OVCAR-5 ovarian it was 23.4 µM. Moreover, the TGI turned out to be 9.8 µM in the assay with RPMI-8226 leukemia, 26.1 µM in the assay on SK-MEL-28 melanoma, 21.2 µM in the assay with SK-MEL-5 melanoma and 13.9 µM in the assay with SW-620 colon.
`COC(=O)[C@@H](Cc1c[nH]c2ccccc12)NC(=O)/C=C/c1ccccc1`: the GI50 in the assay with 786-0 renal is 3.96 µM; with COLO 205 colon it was 12.4 µM; in the assay on HS 578T breast, 1810 nM; in the assay on MDA-MB-231 breast it was 2930 nM; in the assay with NCI/ADR-RES ovarian, 2530 nM; with OVCAR-5 ovarian, 5.43 µM. In addition, the GI50 in the assay with RPMI-8226 leukemia is 3480 nM; with SK-MEL-28 melanoma, 4.43 µM; in the assay on SK-MEL-5 melanoma, 3.14 µM; in the assay on SW-620 colon, 4.07 µM. The TGI with 786-0 renal was > 100 µM; with COLO 205 colon, 50.3 µM; in the assay with HS 578T breast, 7.88 µM; in the assay on MDA-MB-231 breast, 8.63 µM; in the assay with NCI/ADR-RES ovarian it was > 100 µM; in the assay with OVCAR-5 ovarian it was > 100 µM. Further, the TGI is 33.7 µM in the assay with RPMI-8226 leukemia, > 100 µM in the assay with SK-MEL-28 melanoma, 13.8 µM in the assay with SK-MEL-5 melanoma and > 100 µM in the assay with SW-620 colon.
Consider `C=C1CC2(OC1=O)c1ccccc1C=Cc1ccccc12`, for which the TGI was found to be 6.16 µM in the assay with 786-0 renal; 5.82 µM with COLO 205 colon; 6.29 µM in the assay on HS 578T breast; 5.41 µM in the assay on MDA-MB-231 breast; 3.06 µM in the assay on NCI/ADR-RES ovarian; 22.5 µM with OVCAR-5 ovarian. Further, the TGI worked out at 8.68 µM in the assay with RPMI-8226 leukemia, 9.32 µM in the assay with SK-MEL-28 melanoma, 16.4 µM in the assay on SK-MEL-5 melanoma and 4.54 µM in the assay on SW-620 colon.
